± gives the standard deviation of the averaged measurements.
Test: TIMS collisional cross section (CCS, N2) of the lipid ion; higher = larger ion cross section
Details: ionization mode: positive, one isomer drawn

CC/C=C\C/C=C\C/C=C\C/C=C\C/C=C\C/C=C\CCC(=O)O[C@H](CO/C=C\CCCCCCCCCCCCCCCCCC)COP(=O)([O-])OCC[N+](C)(C)C [PC P- 20:0@_22:6] (ion (formula + adduct): [C50H88NO7P+H] 1+)
TIMS collisional cross section (sample type: HeLa): 304.8 Å²

CC/C=C\C/C=C\C/C=C\C/C=C\C/C=C\C/C=C\CCC(=O)O[C@H](COC(=O)CCCCCCCCCCCCCC)COP(=O)(O)OCCN [PE 15:0@_22:6] (ion (formula + adduct): [C42H72NO8P+H] 1+)
TIMS collisional cross section (sample type: Liver): 275.7 Å²

CCCCCCCC/C=C\CCCCCCCC(=O)O[C@H](COC(=O)CCCCCCCCCCCCCCC)COP(=O)(O)OCCN [PE 16:0@_18:1] (ion (formula + adduct): [C39H76NO8P+H] 1+)
TIMS collisional cross section (sample type: Liver): 275.7 Å² | TIMS collisional cross section (sample type: plasma): 275.3 Å²

CC/C=C\C/C=C\C/C=C\C/C=C\C/C=C\C/C=C\CCC(=O)O[C@H](COC(=O)CCCCCCCCCCCCCCC)COP(=O)(O)OCCN [PE 16:0@_22:6] (ion (formula + adduct): [C43H74NO8P+H] 1+)
TIMS collisional cross section (sample type: plasma): 279.1 Å²

CCCCCCCCCCCCCCCC(=O)OC[C@H](COP(=O)(O)OCCN)OC(=O)CCCCCCCCCCCCC [PE 16:0_14:0@] (ion (formula + adduct): [C35H70NO8P+H] 1+)
TIMS collisional cross section (sample type: HeLa): 267.4 Å²

CCCCCCCC/C=C\CCCCCCCC(=O)O[C@H](COC(=O)CCCCCCCCCCCCCCC)COP(=O)(O)OCCN [PE 16:0_18:1] (ion (formula + adduct): [C39H76NO8P+H] 1+)
TIMS collisional cross section (sample type: HeLa): 275.3 Å²

CCCCC/C=C\C/C=C\CCCCCCCC(=O)O[C@H](COC(=O)CCCCCCCCCCCCCCC)COP(=O)(O)OCCN [PE 16:0_18:2] (ion (formula + adduct): [C39H74NO8P+H] 1+)
TIMS collisional cross section (sample type: Liver): 272.9 Å² | TIMS collisional cross section (sample type: plasma): 273 Å²

CC/C=C\C/C=C\C/C=C\CCCCCCCC(=O)O[C@H](COC(=O)CCCCCCCCCCCCCCC)COP(=O)(O)OCCN [PE 16:0_18:3@] (ion (formula + adduct): [C39H72NO8P+H] 1+)
TIMS collisional cross section (sample type: Liver): 269.9 Å²

CCCCC/C=C\C/C=C\C/C=C\C/C=C\CCCC(=O)O[C@H](COC(=O)CCCCCCCCCCCCCCC)COP(=O)(O)OCCN [PE 16:0_20:4] (ion (formula + adduct): [C41H74NO8P+H] 1+)
TIMS collisional cross section (sample type: HeLa): 276.1 ± 1.1 Å² | TIMS collisional cross section (sample type: Liver): 277.25 ± 0.49 Å²

CC/C=C\C/C=C\C/C=C\C/C=C\C/C=C\C/C=C\CCC(=O)O[C@H](COC(=O)CCCCCCCCCCCCCCC)COP(=O)(O)OCCN [PE 16:0_22:6@] (ion (formula + adduct): [C43H74NO8P+H] 1+)
TIMS collisional cross section (sample type: Liver): 280.9 Å²

CC/C=C\C/C=C\C/C=C\C/C=C\C/C=C\C/C=C\CCC(=O)O[C@H](COC(=O)CCCCCCCCCCCCCCC)COP(=O)(O)OCCN [PE 16:0_22:6] (ion (formula + adduct): [C43H74NO8P+H] 1+)
TIMS collisional cross section (sample type: HeLa): 278.6 Å²

CCCCCC/C=C\CCCCCCCC(=O)OC[C@H](COP(=O)(O)OCCN)OC(=O)CCCCCCCCCCCCCCC [PE 16:1@_16:0] (ion (formula + adduct): [C37H72NO8P+H] 1+)
TIMS collisional cross section (sample type: Liver): 268.7 Å²

CCCCC/C=C\C/C=C\C/C=C\CCCCC(=O)O[C@H](COC(=O)CCCCCCC/C=C\CCCCCC)COP(=O)(O)OCCN [PE 16:1@_18:3] (ion (formula + adduct): [C39H70NO8P+H] 1+)
TIMS collisional cross section (sample type: Liver): 266 Å²

CCCCCC/C=C\CCCCCCCC(=O)OC[C@H](COP(=O)(O)OCCN)OC(=O)CCCCCCCCCCCCC [PE 16:1_14:0] (ion (formula + adduct): [C35H68NO8P+H] 1+)
TIMS collisional cross section (sample type: HeLa): 262 Å²

CCCCCC/C=C\CCCCCCCC(=O)OC[C@H](COP(=O)(O)OCCN)OC(=O)CCCCCCCCCCCCCCC [PE 16:1_16:0] (ion (formula + adduct): [C37H72NO8P+H] 1+)
TIMS collisional cross section (sample type: HeLa): 268.7 Å²

CCCCCC/C=C\CCCCCCCC(=O)OC[C@H](COP(=O)(O)OCCN)OC(=O)CCCCCCC/C=C\CCCCCC [PE 16:1_16:1] (ion (formula + adduct): [C37H70NO8P+Na] 1+)
TIMS collisional cross section (sample type: HeLa): 266.4 Å²

CCCCCC/C=C\CCCCCCCC(=O)OC[C@H](COP(=O)(O)OCCN)OC(=O)CCCCCCC/C=C\CCCCCCC [PE 16:1_17:1@] (ion (formula + adduct): [C38H72NO8P+H] 1+)
TIMS collisional cross section (sample type: HeLa): 268.3 Å²

CC/C=C\C/C=C\C/C=C\C/C=C\C/C=C\CCCC(=O)O[C@H](COC(=O)CCCCCCC/C=C\CCCCCC)COP(=O)(O)OCCN [PE 16:1_20:5@] (ion (formula + adduct): [C41H70NO8P+H] 1+)
TIMS collisional cross section (sample type: HeLa): 269.8 Å² | TIMS collisional cross section (sample type: Liver): 269.8 Å²

CCCCC/C=C\C/C=C\C/C=C\C/C=C\CCCC(=O)O[C@H](COC(=O)CCCCCCCCCCCCCCCC)COP(=O)(O)OCCN [PE 17:0_20:4@] (ion (formula + adduct): [C42H76NO8P+H] 1+)
TIMS collisional cross section (sample type: HeLa): 280.4 Å² | TIMS collisional cross section (sample type: Liver): 280.35 ± 0.071 Å²

CCCCC/C=C\C/C=C\C/C=C\C/C=C\CCCC(=O)O[C@H](COC(=O)CCCCCCC/C=C\CCCCCCC)COP(=O)(O)OCCN [PE 17:1_20:4] (ion (formula + adduct): [C42H74NO8P+H] 1+)
TIMS collisional cross section (sample type: Liver): 275.6 Å²

CCCCCCCCCCCCCCCCCC(=O)OC[C@H](COP(=O)(O)OCCN)OC(=O)CCCCCCCCCCCCCCC [PE 18:0@_16:0] (ion (formula + adduct): [C39H78NO8P+H] 1+)
TIMS collisional cross section (sample type: HeLa): 280.3 Å²

CCCCCCCC/C=C\CCCCCCCC(=O)O[C@H](COC(=O)CCCCCCCCCCCCCCCCC)COP(=O)(O)OCCN [PE 18:0@_18:1] (ion (formula + adduct): [C41H80NO8P+H] 1+)
TIMS collisional cross section (sample type: Liver): 282.2 Å² | TIMS collisional cross section (sample type: plasma): 282.1 Å²

CCCCC/C=C\C/C=C\C/C=C\CCCCC(=O)O[C@H](COC(=O)CCCCCCCCCCCCCCCCC)COP(=O)(O)OCCN [PE 18:0@_18:3] (ion (formula + adduct): [C41H76NO8P+H] 1+)
TIMS collisional cross section (sample type: plasma): 279 Å²

CCCCCCCCCCCCCCCCCC(=O)OC[C@H](COP(=O)(O)OCCN)OC(=O)CCCCCCCCCCCCCCCCC [PE 18:0_18:0] (ion (formula + adduct): [C41H82NO8P+Na] 1+)
TIMS collisional cross section (sample type: HeLa): 286.4 Å² | TIMS collisional cross section (sample type: Liver): 286.2 Å²

CCCCCCCC/C=C\CCCCCCCC(=O)O[C@H](COC(=O)CCCCCCCCCCCCCCCCC)COP(=O)(O)OCCN [PE 18:0_18:1] (ion (formula + adduct): [C41H80NO8P+H] 1+)
TIMS collisional cross section (sample type: HeLa): 282.2 Å²

CCCCC/C=C\C/C=C\CCCCCCCC(=O)O[C@H](COC(=O)CCCCCCCCCCCCCCCCC)COP(=O)(O)OCCN [PE 18:0_18:2] (ion (formula + adduct): [C41H78NO8P+H] 1+)
TIMS collisional cross section (sample type: Liver): 279.7 Å² | TIMS collisional cross section (sample type: plasma): 279.8 Å²

CCCCC/C=C\C/C=C\C/C=C\CCCCC(=O)O[C@H](COC(=O)CCCCCCCCCCCCCCCCC)COP(=O)(O)OCCN [PE 18:0_18:3@] (ion (formula + adduct): [C41H76NO8P+H] 1+)
TIMS collisional cross section (sample type: Liver): 278.7 Å²
